Literature values in patent US20180344676A1, “TOPICAL ANALGESIC PAIN RELIEF FORMULATIONS, MANUFACTURE AND METHODS OF USE THEREOF” (priority 2015, published 2018).

Key:
pain and itch responses = conditions: mice
hTRPA1 = hTRPA1 (Homo sapiens, UniProt O75762); conditions: for inhibition of hTRPA1 activation by menthol and allyl isothiocyanate: compound at 1 mM, menthol 1 mM and allyl isothiocyanate 10 uM
hTRPV1 = hTRPV1 (Homo sapiens, UniProt Q8NER1)
human TRPM8 (hTRPM8) = human TRPM8 (hTRPM8) (Homo sapiens, UniProt Q7Z2W7)
Chain of human TRPM8 (hTRPM8) (Q7Z2W7 whole entry): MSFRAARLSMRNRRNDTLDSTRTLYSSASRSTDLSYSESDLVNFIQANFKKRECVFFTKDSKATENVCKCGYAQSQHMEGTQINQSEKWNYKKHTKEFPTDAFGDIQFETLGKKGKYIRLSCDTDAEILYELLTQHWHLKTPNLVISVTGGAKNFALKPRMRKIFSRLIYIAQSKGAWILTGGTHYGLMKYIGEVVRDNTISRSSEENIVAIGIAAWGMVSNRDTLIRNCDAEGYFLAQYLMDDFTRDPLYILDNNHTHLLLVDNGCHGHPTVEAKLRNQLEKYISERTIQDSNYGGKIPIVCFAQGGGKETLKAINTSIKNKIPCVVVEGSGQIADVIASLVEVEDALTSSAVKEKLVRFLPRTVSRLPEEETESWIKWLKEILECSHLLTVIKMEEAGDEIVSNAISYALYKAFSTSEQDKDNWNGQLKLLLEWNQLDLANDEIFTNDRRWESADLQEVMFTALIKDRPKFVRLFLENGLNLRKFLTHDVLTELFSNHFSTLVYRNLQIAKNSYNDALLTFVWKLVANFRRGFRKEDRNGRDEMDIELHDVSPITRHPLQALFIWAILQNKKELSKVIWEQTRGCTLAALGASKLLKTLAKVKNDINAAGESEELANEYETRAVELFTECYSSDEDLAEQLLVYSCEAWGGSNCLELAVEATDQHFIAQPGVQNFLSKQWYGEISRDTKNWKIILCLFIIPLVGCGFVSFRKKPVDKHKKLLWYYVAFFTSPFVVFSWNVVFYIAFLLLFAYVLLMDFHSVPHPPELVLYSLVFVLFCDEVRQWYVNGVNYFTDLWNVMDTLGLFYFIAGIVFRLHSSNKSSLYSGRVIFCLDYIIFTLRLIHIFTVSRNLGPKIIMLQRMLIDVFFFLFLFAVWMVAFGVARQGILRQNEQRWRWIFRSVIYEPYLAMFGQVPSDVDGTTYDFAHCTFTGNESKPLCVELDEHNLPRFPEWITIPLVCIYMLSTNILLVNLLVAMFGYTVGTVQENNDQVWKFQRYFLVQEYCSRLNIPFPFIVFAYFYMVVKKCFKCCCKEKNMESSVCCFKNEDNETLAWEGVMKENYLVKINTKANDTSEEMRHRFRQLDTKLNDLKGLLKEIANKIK

hTRPV2 = biological target: T1, hTRPV2 (Homo sapiens, UniProt Q9Y5S1)
T1 sequence (Q9Y5S1 1-764): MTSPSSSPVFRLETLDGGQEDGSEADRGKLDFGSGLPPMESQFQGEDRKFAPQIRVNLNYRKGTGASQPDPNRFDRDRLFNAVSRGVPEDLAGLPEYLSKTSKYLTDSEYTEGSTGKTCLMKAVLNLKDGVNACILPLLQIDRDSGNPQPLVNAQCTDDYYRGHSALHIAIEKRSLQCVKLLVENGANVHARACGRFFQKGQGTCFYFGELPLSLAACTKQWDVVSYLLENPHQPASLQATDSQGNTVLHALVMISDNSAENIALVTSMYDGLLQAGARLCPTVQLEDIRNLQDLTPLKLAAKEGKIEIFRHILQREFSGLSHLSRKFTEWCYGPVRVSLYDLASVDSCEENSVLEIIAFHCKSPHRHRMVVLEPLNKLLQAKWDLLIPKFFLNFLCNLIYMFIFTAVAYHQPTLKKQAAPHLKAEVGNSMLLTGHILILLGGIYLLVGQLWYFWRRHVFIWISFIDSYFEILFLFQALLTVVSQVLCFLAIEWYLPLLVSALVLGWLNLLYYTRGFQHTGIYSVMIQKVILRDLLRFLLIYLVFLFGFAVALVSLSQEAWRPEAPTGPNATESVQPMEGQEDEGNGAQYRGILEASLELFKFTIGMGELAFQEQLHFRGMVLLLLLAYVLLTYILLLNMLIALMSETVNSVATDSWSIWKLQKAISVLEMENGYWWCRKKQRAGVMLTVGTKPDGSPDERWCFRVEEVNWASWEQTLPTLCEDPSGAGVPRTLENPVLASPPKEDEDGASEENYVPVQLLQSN

Chain of hTRPA1 (O75762 whole entry): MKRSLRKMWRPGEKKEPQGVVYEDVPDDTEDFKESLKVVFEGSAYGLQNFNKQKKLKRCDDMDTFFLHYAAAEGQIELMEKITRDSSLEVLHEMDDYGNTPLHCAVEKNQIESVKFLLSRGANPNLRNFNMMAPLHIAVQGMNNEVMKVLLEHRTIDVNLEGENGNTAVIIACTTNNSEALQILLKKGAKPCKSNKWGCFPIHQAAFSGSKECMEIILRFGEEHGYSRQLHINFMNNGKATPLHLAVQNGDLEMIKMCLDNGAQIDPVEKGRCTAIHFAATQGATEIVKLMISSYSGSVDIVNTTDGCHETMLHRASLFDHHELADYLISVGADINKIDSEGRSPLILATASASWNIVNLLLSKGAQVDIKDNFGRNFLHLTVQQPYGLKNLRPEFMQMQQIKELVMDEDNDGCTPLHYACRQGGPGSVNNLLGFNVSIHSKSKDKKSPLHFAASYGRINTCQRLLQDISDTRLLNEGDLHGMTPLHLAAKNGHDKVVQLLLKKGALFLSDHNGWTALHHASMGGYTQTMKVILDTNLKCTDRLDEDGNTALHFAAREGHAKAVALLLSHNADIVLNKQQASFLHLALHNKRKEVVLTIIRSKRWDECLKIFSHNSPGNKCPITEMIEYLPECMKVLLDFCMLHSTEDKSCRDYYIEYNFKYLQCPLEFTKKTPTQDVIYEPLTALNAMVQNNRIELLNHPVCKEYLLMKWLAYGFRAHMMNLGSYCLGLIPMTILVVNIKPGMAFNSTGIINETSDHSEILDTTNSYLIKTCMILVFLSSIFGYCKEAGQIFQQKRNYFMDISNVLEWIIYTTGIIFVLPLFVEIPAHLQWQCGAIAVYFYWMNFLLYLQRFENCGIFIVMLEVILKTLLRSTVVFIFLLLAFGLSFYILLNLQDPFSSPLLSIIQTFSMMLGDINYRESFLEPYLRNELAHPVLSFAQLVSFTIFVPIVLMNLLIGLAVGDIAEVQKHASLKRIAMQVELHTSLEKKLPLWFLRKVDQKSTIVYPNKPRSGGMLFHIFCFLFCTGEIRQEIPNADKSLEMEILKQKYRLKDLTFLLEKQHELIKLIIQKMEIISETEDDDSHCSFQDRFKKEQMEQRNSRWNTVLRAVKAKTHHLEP
Chain of hTRPV1 (Q8NER1 whole entry): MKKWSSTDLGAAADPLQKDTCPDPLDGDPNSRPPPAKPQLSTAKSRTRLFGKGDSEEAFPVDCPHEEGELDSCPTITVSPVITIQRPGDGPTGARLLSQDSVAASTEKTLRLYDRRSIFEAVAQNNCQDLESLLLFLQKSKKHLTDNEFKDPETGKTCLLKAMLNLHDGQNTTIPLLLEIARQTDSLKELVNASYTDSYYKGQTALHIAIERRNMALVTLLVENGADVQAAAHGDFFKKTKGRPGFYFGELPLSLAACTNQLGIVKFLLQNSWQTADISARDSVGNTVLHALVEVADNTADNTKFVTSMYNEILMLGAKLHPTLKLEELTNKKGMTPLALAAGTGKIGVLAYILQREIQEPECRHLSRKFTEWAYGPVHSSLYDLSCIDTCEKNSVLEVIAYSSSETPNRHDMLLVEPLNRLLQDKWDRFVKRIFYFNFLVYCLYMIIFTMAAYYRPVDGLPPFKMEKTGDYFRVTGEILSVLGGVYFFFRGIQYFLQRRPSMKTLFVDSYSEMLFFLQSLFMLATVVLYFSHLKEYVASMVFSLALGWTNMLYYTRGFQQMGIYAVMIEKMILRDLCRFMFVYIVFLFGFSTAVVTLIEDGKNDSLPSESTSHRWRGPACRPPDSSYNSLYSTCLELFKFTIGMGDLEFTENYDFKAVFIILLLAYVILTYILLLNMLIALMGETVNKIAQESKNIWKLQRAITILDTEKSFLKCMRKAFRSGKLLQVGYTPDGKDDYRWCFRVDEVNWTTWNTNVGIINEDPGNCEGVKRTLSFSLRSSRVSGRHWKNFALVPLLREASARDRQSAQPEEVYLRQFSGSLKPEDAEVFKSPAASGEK

| SMILES | activation of hTRPA1 (hTRPA1) | inhibition of hTRPA1 activation by menthol and allyl isothiocyanate (hTRPA1) | further results |
| --- | --- | --- | --- |
| CCCCCCCC/C=C\CCCCCCCC(=O)O [oleic acid] | – | – | TRPV1 activity (TRPV1): inhibited; pain and itch responses (pain and itch responses): inhibited |
| CC1(C)[C@@H]2CC[C@@]1(C)[C@](C)(O)C2 [2-methylosoborneol] | did not activate | completely inhibited | – |
| CC12CCC(CC1=O)C2(C)C (stereo not shown) [camphor] | did not activate | – | – |
| CC1(C)C2CCC1(C)C(O)C2 (stereo not shown) [borneol] | did not activate | completely inhibited | – |
| CC12CCC(CC1)C(C)(C)O2 [1,8-cineole] | – | – | activation of hTRPV1 (hTRPV1): did no( activate; activation of human TRPM8 (human TRPM8 (hTRPM8)): activates; activation of hTRPV2 (hTRPV2): did no( activate |
| O=C1CC2CC[C@H]1C2 [norcamphor] | did not activate | – | – |
| CC12CCC(C1)C(C)(C)C2O (stereo not shown) [fenchyl alcohol] | did not activate | completely inhibited | – |
